Laboratory results from patent US6964975B2, “Isoxazole and thiazole compounds and use thereof as medicine” (Kirin Beer Kabushiki Kaisha, priority 2000, dated 2005).

Key:
[1] = test system: ovarian carcinoma cells (SKOV3); assay: Inhibitory activity against BrdU incorporation, LPA-stimulated ovarian carcinoma cells; assay type: cell-based, human; details: SKOV3, LPA 3 μM, FIG. 2B
Procedure: (§1) Human brain tumor cells (U87 MG) and ovarian carcinoma cells (SKOV3) suspended in serum-free DMEM were plated on a 96-well plate. 24 hours later, Compound 115 and LPA (3 μM) were added and the mixture was cultured for 16 hours, followed by the BrdU addition. Culture was continued for 3 hours from the addition of BrdU. Thereafter, the incorporation of BrdU into the cells was assayed based on the absorbance at 450 nm using the Cell proliferation ELISA system (RPN250, Amersham LIFE SCIENCE).

[2] = Solubility in water (remark); assay type: physicochemical; details: white powder
[3] = test system: Human brain tumor cells (U87 MG); assay: Inhibitory activity against BrdU incorporation, LPA-stimulated brain tumor cells; assay type: cell-based; details: LPA 3 μM, FIG. 2A
Procedure: as §1

[4] = test system: lactic acid induced peripheral circulatory disturbance in rats; assay: Rat model of lactic acid induced peripheral circulatory disturbance (lesion score); assay type: in vivo; details: for Score of lesion: mean ± S.E.
Excerpt: Peripheral arterial obstructions including clinical arteriosclerosis obliterans (ASO) are, in common, chronic diseases, which often cause ulcer or necrosis in lower limbs, and lesions are worsened by arterial thrombotic infarcts upstream of the lesions. Therefore, the target of the treatment for the above diseases is to inhibit the progress and to eliminate the ischemic symptoms. Antiplatelet drugs and anticoagulants are often used therefor. […] ID3016511 (Compound 115), which is one of the compounds according to the present invention, is selected as an example and administered daily to a rat model of lactic acid induced peripheral circulatory disturbance used as an animal model of peripheral arterial obstruction to examine the drug's therapeutic effect.
13-week old Wister male rats were used in test groups of 10 rats. Each rat was fixed in a face-up position under anesthesia by 40 mg/kg of intraperitoneally administered pentobarbital sodium. The left femoral region was then incised and 0.1 ml of 5% lactic acid solution was administered into the femoral artery. Adhesives were applied dropwise at the lactic acid administered site for blood stanching. Thereafter, a penicillin G solution was added dropwise to prevent infections and the incised part was sutured. […] The solvent and the test solution were orally administered. Administration was carried out 2 hours before lactic acid administration and, thereafter, twice a day at an interval of at least 7 hours for 13 days repeatedly. […] The positive control material was administered 3 hours before the lactic acid administration, and it was repeatedly orally administered twice a day for 13 days in the same way as the above test compound. The progress of lesion on legs and feet was observed 3, 7, and 14 days after the lactic acid administration and the results were scored from 0 to 4 based on the following criteria:
1: nigrities limited to the tiptoe
2: nigrities reaching toe
Each toe was scored and the sum of scores for each toe was determined as a lesion index. When the damage reached the sole, 5 points were added.
The significant difference between the control group and the test material group was assayed by the non-parametric Dunnet's test. The significant difference between the control group and the positive control material group was assayed by the non-parametric Wilcoxon's test.

[5] = molecular target: T1, human EDG-2 (Homo sapiens, UniProt Q92633); assay: Inhibitory activity on LPA-induced elevation of intracellular Ca2+ level; assay type: cell-based; details: 50% inhibition of elevation of intracellular Ca2+ level by LPA, human EDG-2/HepG2 cells, fura-2
T1 construct: cDNA of the cloned human EDG-2 was introduced into pEFneo, which is an animal expression vector; expressed in transfected cells; host or cells: HepG2
T1 sequence (Q92633 whole entry): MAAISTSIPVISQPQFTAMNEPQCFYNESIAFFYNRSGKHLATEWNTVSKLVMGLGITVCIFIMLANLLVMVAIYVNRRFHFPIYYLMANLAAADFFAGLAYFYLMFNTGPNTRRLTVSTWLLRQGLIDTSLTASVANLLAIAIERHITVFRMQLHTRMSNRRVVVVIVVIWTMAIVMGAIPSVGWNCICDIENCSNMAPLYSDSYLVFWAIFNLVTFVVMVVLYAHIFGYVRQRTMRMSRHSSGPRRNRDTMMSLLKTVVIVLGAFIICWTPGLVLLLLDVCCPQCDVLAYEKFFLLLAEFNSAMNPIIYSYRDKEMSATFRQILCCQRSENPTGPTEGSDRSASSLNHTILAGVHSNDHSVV
Outline: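 Stably transfected HepG2 cells loaded with fura-2/AM (45 min, room temperature) in 0.1% BSA HEPES buffer. Test compound added before LPA, and the LPA-evoked intracellular Ca2+ rise measured fluorometrically. IC50 for inhibition derived.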

[6] = test system: Human EDG-2/HepG2 cells; assay: Inhibitory activity on LPA-accelerated [3H] thymidine incorporation (cell proliferation); assay type: cell-based; details: 50% inhibition of LPA-induced increase of [3H] thymidine incorporation
Excerpt: The human EDG-2 expression plasmid was introduced into HepG2 cells by electroporation. After the introduction, culturing was continued while exchanging selective media every 3 to 4 days, thereby obtaining an expressed colony. Regarding these cells, Ca-influx and cell-proliferation by LPA, level of [^3H] LPA binding and the like were inspected to select a cell line which highly expresses human EDG-2 (human EDG-2/HepG2).
Human EDG-2/HepG2 cells suspended in 10% bovine serum-containing DMEM (Dulbecco's modified eagle medium) were plated on a 96-well plate and, on the next day, the medium was exchanged with serum-free DMEM. 24 hours later, the medium was exchanged with DMEM containing LPA or DMEM containing no LPA, cells were cultured for further 16 hours, and [^3H] thymidine was then added. After culturing for 8 hours subsequent to the addition of [^3H] thymidine, cells were washed with PBS (phosphate-buffered saline), and the amount of [^3H] thymidine incorporated into the cells were assayed by Betaplate filter counter system (Amersham Pharmacia Biotech). The difference between the amount of [^3H] thymidine incorporated in the LPA-added well and the amount of [^3H] thymidine incorporated in the well containing no LPA represents the amount of [^3H] thymidine incorporation accelerated by LPA. […] The test compounds were added immediately before the LPA addition.

IC50 [5] | IC50 [6] | Compound | further results
1 to 3 µM | 0.01 to 0.03 µM | COC(=O)CCSCc1ccc(-c2onc(C)c2NC(=O)OC(C)c2ccccc2Cl)cc1 (centres unmarked) [Compound 115, Methyl 3-({4-[4-({[1-(2-chlorophenyl)ethoxy]carbonyl}amino)-3-methyl-5-isoxazolyl]-benzyl}sulfanyl)propanoate] | Concentration at which proliferation (BrdU incorporation) was inhibited in a concentration dependent manner [1]: ≥ 0.3 µM; Solubility in water [2]: poor solubility in water; Concentration at which proliferation (BrdU incorporation) was inhibited in a concentration dependent manner [3]: ≥ 0.3 µM; Score of lesion ([4]; 20 mg/kg twice/day p.o., 3 days after lactic acid injection): 2.6 ± 0.8; Score of lesion ([4]; 20 mg/kg twice/day p.o., 7 days after lactic acid injection): 4.3 ± 1.0; Score of lesion ([4]; 20 mg/kg twice/day p.o., 14 days after lactic acid injection): 6.9 ± 1.4; Score of lesion ([4]; 60 mg/kg twice/day p.o., 7 days after lactic acid injection): 1.9 ± 0.5; Progress of lesions in the feet and legs ([4]; dose of 60 mg/kg): inhibited the progress of lesions; Progress of lesion versus control group ([4]; repeated administration of 20 mg/kg for 14 days): equivalent level of progress with the control group
10 to 30 µM | 0.03 µM | Cc1noc(-c2ccc(CSCCNC(=O)c3ccc[nH]3)cc2)c1NC(=O)OC(C)c1ccccc1Cl (centres unmarked) [Compound 149, 1-(2-Chlorophenyl)ethyl N-(3-methyl-5-{4-[({2-[(1H-2-pyrrolylcarbonyl)amino]ethyl}-sulfanyl)methyl]phenyl}-4-isoxazolyl)carbamate] | –
3 to 10 µM | 0.1 µM | Cc1noc(-c2ccc(CSCCS(=O)(=O)O)cc2)c1NC(=O)OC(C)c1ccccc1Cl (centres unmarked) [Compound 151, 2-({4-[4-({[1-(2-Chlorophenyl)ethoxy]carbonyl}amino)-3-methyl-5-isoxazolyl]benzyl}-sulfanyl)-1-ethanesulfonic acid] | –
3 to 10 µM | 0.3 µM | Cc1noc(-c2ccc(CSCCCS(=O)(=O)O)cc2)c1NC(=O)OC(C)c1ccccc1Cl (centres unmarked) [Compound 152, 3-({4-[4-({[1-(2-Chlorophenyl)ethoxy]carbonyl}amino)-3-methyl-5-isoxazolyl]benzyl}-sulfanyl)-1-propanesulfonic acid] | –
3 to 10 µM | 0.3 µM | CCc1noc(-c2ccc(CSCC(=O)OC)cc2)c1NC(=O)OC(C)c1ccccc1Cl (centres unmarked) [Compound 153, Methyl 2-({4-[4-({[1-(2-chlorophenyl)ethoxy]carbonyl}amino)-3-ethyl-5-isoxazolyl]benzyl}-sulfanyl)acetate] | –
3 to 10 µM | 0.1 to 0.3 µM | CCc1noc(-c2ccc(CSCC(=O)O)cc2)c1NC(=O)OC(C)c1ccccc1Cl (centres unmarked) [Compound 154, 2-({4-[4-({[1-(2-Chlorophenyl)ethoxy]carbonyl}amino)-3-ethyl-5-isoxazolyl]benzyl}-sulfanyl)acetic acid] | –
10 µM | 0.3 to 1 µM | COC(=O)CCSCc1ccc(-c2onc(C)c2NC(=O)OC(C)c2ccccc2F)cc1 (centres unmarked) [Compound 156, Methyl 3-({4-[4-({[1-(2-fluorophenyl)ethoxy]carbonyl}amino)-3-methyl-5-isoxazolyl]-benzyl}-sulfanyl)propanoate] | –
3 µM | 0.3 to 1 µM | Cc1noc(-c2ccc(CSCCC(=O)O)cc2)c1NC(=O)OC(C)c1ccccc1F (centres unmarked) [Compound 157, 3-({4-[4-({[1-(2-Fluorophenyl)ethoxy]carbonyl}amino)-3-methyl-5-isoxazolyl]benzyl}-sulfanyl)propanoic acid] | –
3 to 10 µM | 1 µM | Cc1noc(-c2cccc(CSCCS(=O)(=O)O)c2)c1NC(=O)OC(C)c1ccccc1Cl (centres unmarked) [Compound 158, 2-({3-[4-({[1-(2-Chlorophenyl)ethoxy]carbonyl}amino)-3-methyl-5-isoxazolyl]benzyl}-sulfanyl)-1-ethanesulfonic acid] | –
3 µM | 0.3 µM | Cc1noc(-c2cccc(CSCCC(=O)O)c2)c1NC(=O)OC(C)c1ccccc1Cl (centres unmarked) [Compound 159, 3-({3-[4-({[1-(2-Chlorophenyl)ethoxy]carbonyl}amino)-3-methyl-5-isoxazolyl]benzyl}-sulfanyl)propanoic acid] | –
3 to 10 µM | 1 to 3 µM | Cc1noc(-c2ccc(CCl)cc2)c1NC(=O)OC(c1ccccc1)C(F)(F)F (centres unmarked) [Compound 161, 2,2,2-Trifluoro-1-phenylethyl N-{5-[4-(chloromethyl)phenyl]-3-methyl-4-isoxazolyl}-carbamate] | –
3 to 10 µM | 0.03 to 0.1 µM | COC(=O)CCSCc1ccc(-c2onc(C)c2NC(=O)OC(c2ccccc2)C(F)(F)F)cc1 (centres unmarked) [Compound 162, Methyl 3-{[4-(3-methyl-4-{[(2,2,2-trifluoro-1-phenylethoxy)carbonyl]amino}-5-isoxazolyl)-benzyl]-sulfanyl}propanoate] | –
3 to 10 µM | 0.03 to 0.1 µM | Cc1noc(-c2ccc(CSCCC(=O)O)cc2)c1NC(=O)OC(c1ccccc1)C(F)(F)F (centres unmarked) [Compound 163, 3-{[4-(3-Methyl-4-{[(2,2,2-trifluoro-1-phenylethoxy)carbonyl]amino}-5-isoxazolyl)benzyl]-sulfanyl}propanoic acid] | –
3 to 10 µM | 0.3 to 1 µM | CCc1noc(-c2ccc(CCl)cc2)c1NC(=O)OC(c1ccccc1)C(F)(F)F (centres unmarked) [Compound 164, 2,2,2-Trifluoro-1-phenylethyl N-{5-[4-(chloromethyl)phenyl]-3-ethyl-4-isoxazolyl}carbamate] | –
3 to 10 µM | 0.1 to 0.3 µM | CCc1noc(-c2ccc(CSCCC(=O)OC)cc2)c1NC(=O)OC(C)c1ccccc1F (centres unmarked) [Compound 165, Methyl 3-({4-[3-ethyl-4-({[1-(2-fluorophenyl)ethoxy]carbonyl}amino)-5-isoxazolyl]-benzyl}sulfanyl)propanoate] | –
10 µM | 0.1 µM | CCc1noc(-c2ccc(CSCCC(=O)OC)cc2)c1NC(=O)OC(c1ccccc1)C(F)(F)F (centres unmarked) [Compound 166, Methyl 3-{[4-(3-ethyl-4-{[(2,2,2-trifluoro-1-phenylethoxy)carbonyl]amino}-5-isoxazolyl)-benzyl]sulfanyl}propanoate] | –
3 to 10 µM | 0.03 to 0.1 µM | CCc1noc(-c2ccc(CSCCC(=O)O)cc2)c1NC(=O)OC(C)c1ccccc1F (centres unmarked) [Compound 167, 3-({4-[3-Ethyl-4-({[1-(2-fluorophenyl)ethoxy]carbonyl}amino)-5-isoxazolyl]benzyl}-sulfanyl)propanoic acid] | –
3 to 10 µM | 1 µM | CCOC(=O)COCc1ccc(-c2onc(C)c2NC(=O)OC(C)c2ccccc2Cl)cc1 (centres unmarked) [Compound 168, Ethyl 2-({4-[4-({[1-(2-chlorophenyl)ethoxy]carbonyl}amino)-3-methyl-5-isoxazolyl]-benzyl}oxy)acetate] | –
3 to 10 µM | 1 to 3 µM | CCOC(=O)COCc1ccc(-c2onc(C)c2NC(=O)OC(c2ccccc2)C(F)(F)F)cc1 (centres unmarked) [Compound 169, Ethyl 2-{[4-(3-methyl-4-{[(2,2,2-trifluoro-1-phenylethoxy)carbonyl]amino}-5-isoxazolyl)-benzyl]oxy}acetate] | –
